We go through four compounds from US8673889B2, “BLT2-mediated disease, BLT2 binding agent and the compound” (Ono Pharmaceutical Co., Ltd., priority 2004, dated 2014).

Structures are written as SMILES.

Usually IC50 stands for the point on the concentration scale where inhibition reaches its midpoint. The low end stands for greater potency in that assay, the high end for weaker potency in that assay.

Format in all cases: cell-based
Test [1] addresses T1, BLT1 (Homo sapiens, UniProt Q15722). In words: BLT1 antagonistic activity measured by the same way (intracellular Ca2+). As to conditions: measured by the same way as BLT2. Here is the method: (§1) The receptor antagonist activity was evaluated by using human BLT2 gene-overexpressing Chinese Hamster Ovar (CHO) cells (see J. Exp. Med. Volume 192, Number 3 2000, and 421-.). BLT2-expressing cells were cultured in Ham 's F1 medium (GIBCO BRL and No. 11765-047) containing 10% FBS (fetal bovine serum), penicillin/streptomycin and blasticidin (5 μg/ml). First, to make the cells to take Fura2-AM (Dojindo and No. 348-05831), the cells were incubated in 5 μM Fura2-AM solution (Ham's F1 medium containing 10% FBS, 20 mM HEPES buffer (pH7.4) and 2.5 mM probenecid (Sigma and No. P-8761)) at 37° C. for 60 minutes. Then, the cells were washed once with Hanks solution containing 20 mM HEPES buffer (pH7.4) and 2.5 mM probenecid, and soaked in Hanks solution until assay. The plate was sat up on fluorescent drug screening system (Hamamatsu Photonics FDSS-2000) and measured without any stimulation for 30 seconds, to which the compound solution of the present invention was added. […] The compound of the present invention was dissolved to dimethylsulfoxide (DMSO) and added in order that the final concentration is […]. […] IC50 value is a concentration of the compound of the present invention in which the inhibition ratio is 50%. Also, BLT1 antagonistic activity was measured by the same way.

Test [2] deals with T2, BLT2 (Homo sapiens, UniProt Q9NPC1).
T2 sequence (Q9NPC1 1-358): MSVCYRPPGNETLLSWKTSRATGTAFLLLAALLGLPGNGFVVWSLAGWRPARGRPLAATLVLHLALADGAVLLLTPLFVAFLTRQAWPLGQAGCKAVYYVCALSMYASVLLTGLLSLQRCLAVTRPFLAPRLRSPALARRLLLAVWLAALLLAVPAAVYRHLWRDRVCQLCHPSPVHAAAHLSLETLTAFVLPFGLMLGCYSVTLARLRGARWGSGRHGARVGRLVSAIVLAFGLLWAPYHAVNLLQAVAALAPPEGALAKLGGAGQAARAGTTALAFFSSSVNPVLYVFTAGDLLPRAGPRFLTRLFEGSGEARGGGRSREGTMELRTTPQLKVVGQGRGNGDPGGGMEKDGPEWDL
In words: Evaluation of BLT2 antagonistic activity by monitoring the variation of intracellular Ca2+ concentration. Details: expressed in transfected cells; host or cells: CHO cells. As to the method:
as §1

In test [3] the target is T1, BLT1. In words: BLT1 agonistic activity measured by the same way (intracellular Ca2+). As to conditions: measured by the same way as BLT2.
Test [4] concerns the target T2, BLT2. Kind of test: Evaluation of BLT2 agonistic activity by monitoring the variation of intracellular Ca2+ concentration. Details: expressed in transfected cells.
Test [5] deals with T3, mBLT2 (Mus musculus, UniProt Q9JJL9).
T3 construct: mBLT2 ORF was amplified by PCR using a sense primer having BamHI restriction enzyme site; expressed in transfected cells
T3 sequence (Q9JJL9 1-360): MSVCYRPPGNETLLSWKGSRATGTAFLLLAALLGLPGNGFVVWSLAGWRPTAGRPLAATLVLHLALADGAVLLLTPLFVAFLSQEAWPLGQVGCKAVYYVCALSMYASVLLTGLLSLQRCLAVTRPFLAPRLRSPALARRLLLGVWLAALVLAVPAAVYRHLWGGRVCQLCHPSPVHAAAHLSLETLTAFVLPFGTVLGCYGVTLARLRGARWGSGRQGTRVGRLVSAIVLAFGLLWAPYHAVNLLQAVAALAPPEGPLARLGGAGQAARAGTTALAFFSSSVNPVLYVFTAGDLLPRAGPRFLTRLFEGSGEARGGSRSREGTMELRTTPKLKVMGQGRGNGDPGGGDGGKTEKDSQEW
Kind of test: Measurement of intracellular Ca2+ concentration in mBLT2-expressing CHO cells. Particulars: FIG. 4, read-out: EC50 value, rise of the intracellular calcium concentration. The source says:
mBLT2 ORF was amplified by PCR using a sense primer having BamHI restriction enzyme site (sense primer; 5′-[…]-3′ (SEQ ID NO.1)) and an antisense primer having EcoRI restriction enzyme site (antisense primer; 5′-[…]-3′ (SEQ ID NO.2)). The PCR product was digested with BamHI and EcoRI and inserted in expression plasmid (pcDNA3 Invitrogen). The inserted sequence was confirmed by the DNA sequence. Plasmid DNA ([…]) was transfected into CHO cells cultured in Ham's F-12 medium containing 10% fetal bovine serum and antibiotic (streptomycin (100 μg/mL) and penicillin (100 μg/L)) in cell culture plates (6 cm). The resistant strains were obtained by culturing for 2 weeks in the existence of antibiotic (G418 [Wako], 1 mg/mL). […]
mBLT2-expressing CHO cells prepared by Biological Example 3 were cultured in modified Hepes-Tyrode's BSA buffer (Hepes-NaOH (25 mM, pH7.4), NaCl (140 mM), KCl (2.7 mM), CaCl2(10 nM), NaHCO3(12 mM), D-Glucose (5.6 mM), NaH2PO4(0.37 mM), MgCl2(0.49 mM), cremophour (0.01%), fatty acid-free BSA (fraction V, 0.1w/v %)) containing fluorochrome (Fura-2 AM [Dojin], 3 μm) at 37° C. for 2 hours to make to take fluorochrome. […] Dimethylsulfoxide (DMSO) solution (5 μL) containing ligand was added to the cell suspension, of which the intracellular calcium concentration was monitored (excitation wavelength 340 nm and 380 nm and fluorescent wave-length 510 nm).
In general terms: Calcium flux is commonly read through the fluorescence of an indicator in the cells.

For test [6], the target named is T3, mBLT2. In words: ERK phosphorylation (1) in mBLT2-expressing CHO cells. Particulars: ligand 5 minutes, FIG. 5. The source says:
mBLT2 ORF was amplified by PCR using a sense primer having BamHI restriction enzyme site (sense primer; 5′-[…]-3′ (SEQ ID NO.1)) and an antisense primer having EcoRI restriction enzyme site (antisense primer; 5′-[…]-3′ (SEQ ID NO.2)). The PCR product was digested with BamHI and EcoRI and inserted in expression plasmid (pcDNA3 Invitrogen). The inserted sequence was confirmed by the DNA sequence. Plasmid DNA ([…]) was transfected into CHO cells cultured in Ham's F-12 medium containing 10% fetal bovine serum and antibiotic (streptomycin (100 μg/mL) and penicillin (100 μg/L)) in cell culture plates (6 cm). The resistant strains were obtained by culturing for 2 weeks in the existence of antibiotic (G418 [Wako], 1 mg/mL). The stable expressing strains were obtained by culturing 19 obtained resistant strains with limiting dilution method.

Test [7] deals with T4, mBLT1 (Mus musculus, UniProt O88855).
T4 construct: expressed in transfected cells; host or cells: CHO cells
T4 sequence (O88855 whole entry): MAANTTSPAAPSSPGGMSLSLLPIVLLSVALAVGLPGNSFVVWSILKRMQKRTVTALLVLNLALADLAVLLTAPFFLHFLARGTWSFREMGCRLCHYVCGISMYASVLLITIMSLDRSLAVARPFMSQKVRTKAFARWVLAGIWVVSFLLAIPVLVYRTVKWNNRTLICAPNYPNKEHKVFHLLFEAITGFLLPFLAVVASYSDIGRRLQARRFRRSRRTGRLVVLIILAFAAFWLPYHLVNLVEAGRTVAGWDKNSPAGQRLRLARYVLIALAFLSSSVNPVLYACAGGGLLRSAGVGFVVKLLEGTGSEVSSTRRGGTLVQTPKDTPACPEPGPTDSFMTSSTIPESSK
Kind of test: ERK phosphorylation (1) in mBLT1-expressing CHO cells. Particulars: ligand 5 minutes, FIG. 5.

Test [8] relates to mouse primary culture keratinocytes. Kind of test: ERK phosphorylation (2) in mouse primary culture keratinocytes. As to conditions: FIG. 7.
The target in test [9] is T4, mBLT1. Kind of test: Measurement of intracellular Ca2+ concentration in mBLT1-expressing CHO cells. As to conditions: FIG. 4.
The test system of the next test is mock. Kind of test: Measurement of intracellular Ca2+ concentration in mock cells. As to conditions: FIG. 4. Here is the method:
mBLT2-expressing CHO cells prepared by Biological Example 3 were cultured in modified Hepes-Tyrode's BSA buffer (Hepes-NaOH (25 mM, pH7.4), NaCl (140 mM), KCl (2.7 mM), CaCl2(10 nM), NaHCO3(12 mM), D-Glucose (5.6 mM), NaH2PO4(0.37 mM), MgCl2(0.49 mM), cremophour (0.01%), fatty acid-free BSA (fraction V, 0.1w/v %)) containing fluorochrome (Fura-2 AM [Dojin], 3 μm) at 37° C. for 2 hours to make to take fluorochrome. These cells were washed 2 times and resuspended (10^6 cells/mL) in Hepes-Tyrode's BSA buffer. The cell suspension (0.5 mL) was applied to fluorescent intensity meter (CAF-100 system [Jasco]). Dimethylsulfoxide (DMSO) solution (5 μL) containing ligand was added to the cell suspension, of which the intracellular calcium concentration was monitored (excitation wavelength 340 nm and 380 nm and fluorescent wave-length 510 nm).

T1 sequence (Q15722 whole entry, species assumed): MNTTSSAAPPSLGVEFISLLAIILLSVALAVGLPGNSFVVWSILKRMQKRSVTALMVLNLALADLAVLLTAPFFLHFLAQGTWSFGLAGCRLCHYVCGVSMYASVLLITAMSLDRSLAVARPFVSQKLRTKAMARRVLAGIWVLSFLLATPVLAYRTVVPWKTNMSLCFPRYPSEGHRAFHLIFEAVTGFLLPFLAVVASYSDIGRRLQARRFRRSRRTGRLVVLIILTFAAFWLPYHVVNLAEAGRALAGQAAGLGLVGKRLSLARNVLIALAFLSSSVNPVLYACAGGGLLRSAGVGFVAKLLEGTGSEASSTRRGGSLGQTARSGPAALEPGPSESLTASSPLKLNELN

Take `O=C([O-])c1ccc(-c2cccc(CN(CCCc3ccccc3)C(=O)CCc3ccccc3)c2)cc1.[Na+]` [Example 1(32), sodium 3′-{[(3-phenylpropanoyl)(3-phenylpropyl)amino]methyl}-1,1′-biphenyl-4-carboxylate]: the BLT1 antagonistic activity entry at BLT1 [1] is “did not have BLT1 antagonistic activity”. In addition, 1800 nM corresponded to half-maximal inhibition at BLT2 [2] (IC50).
Regarding `O=C(Cc1ccccc1)NCc1ccc(-c2ccccc2C(=O)O)cc1` [Example 13, 4′-{[(phenylacetyl)amino]methyl}-1,1′-biphenyl-2-carboxylic acid], the BLT1 agonistic activity result at BLT1 [3] was “did not have BLT1 agonistic activity”. The IC50 at BLT2 [4] came out at 45 nM.
For the compound `CCCCC/C=C\C[C@@H](O)/C=C/C=C/C=C\[C@@H](O)CCCC(=O)O` [LTB4, 5-[S], 12-[R]-dihydroxy-6,14-cis-8,10-trans-eicosatetraenoic acid, reference compound], the EC50 on mBLT2 [5] is 121 nM. Also, the ERK phosphorylation entry at mBLT2 [6] is reported as “induced”; on mBLT1 [7], “induced”; in [8], “induced ERK phosphorylation”.
With `CCCCC(=O)N(Cc1ccc(-c2ccccc2C(=O)O)cc1)c1ccccc1` [compound A, 4′-{[pentanoyl(phenyl)amino]methyl}-1,1′-biphenyl-2-carboxylic acid], the EC50 on mBLT2 [5] came to 21 nM. Besides, the “rise of intracellular calcium concentration” value at mBLT1 [9] and in the test with mock was “not rised” each time. Moreover, the ERK phosphorylation entry on mBLT2 [6] is “induced”; at mBLT1 [7], “induced”; in test [8] it was “induced ERK phosphorylation”.
